Results from patent US9708314B2, “Heterocyclic amide compound” (NISSAN CHEMICAL INDUSTRIES, LTD., priority 2013, dated 2017).

What was measured:
Type in all cases: in vivo
[1] = tested on: Glycine max; test: Test Example 4: effect on crop by application to foliage (diluvial soil, plastic box); details: for d (Glycine max) effect on crop grade: Application herbicide amount 320 g/ha; for d (Glycine max) effect on crop grade / c (Glycine max) effect on crop grade: foliage application; for c (Glycine max) effect on crop grade: 320 g/ha; for d: effect on crop, Glycine max: application to foliage, application herbicide amount 320 g/ha
How it was run: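 Emulsion-formulated compound, diluted to a predetermined g/ha dose, applied by small sprayer to leaves and stems of 14-day-old seedlings grown in sterilized diluvial soil. Effect rated on 0–5 herbicidal-ratio scale three weeks on.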

[2] = tested on: Echinochloa oryzacola Vasing.; test: Test Example 1: herbicidal activity, application before weed generation in submerged conditions; details: Application herbicide amount 320 g/ha; Seventeenth Table
How it was run: (§1)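 Rating, on a six-step scale from almost no effect (0) to almost completely withered (5), was made three weeks after pre-emergence treatment. Treatment was surface application to flooded pots at g/ha rates, with plants kept at 25° C. to 30° C.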

[3] = tested on: Scirpus juncoides; test: as above; details: Application herbicide amount 320 g/ha; Seventeenth Table
How it was run: as §1

[4] = tested on: Monochoria vaginalis; test: as above; details: Application herbicide amount 320 g/ha; Seventeenth Table
How it was run: as §1

[5] = tested on: Echinochloa crus-galli var. crus-galli; test: Test Example 3: herbicidal effect by application to foliage (Wagner pot, water depth 0.1-0.5 cm); details: Nineteenth Table; application to foliage; application herbicide amount 320 g/ha
How it was run: (§2)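 Scores (0–5) reflect herbicidal ratio three weeks after a foliar spray: 0 is 5% or less, 5 is 90% or more. Plants had grown 14 days in alluvial soil pots in a 25–30 °C greenhouse before treatment with water-diluted emulsion at a set g/ha.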

[6] = tested on: Cyperus difformis; test: as above; details: Nineteenth Table; application to foliage; application herbicide amount 320 g/ha
How it was run: as §2

[7] = tested on: Leptochloa chinensis; test: as above; details: Nineteenth Table; application to foliage; application herbicide amount 320 g/ha
How it was run: as §2

SMILES	d (Glycine max) effect on crop grade [1]	A: Echinochloa oryzicola Vasing. (herbicidal effect grade) [2]	B: Scirpus juncoides (herbicidal effect grade) [3]	C: Monochoria vaginalis (herbicidal effect grade) [4]	H (herbicidal effect grade) [5]	E (herbicidal effect grade) [6]	D (herbicidal effect grade) [7]	c (Glycine max) effect on crop grade [1]	d: effect on crop, Glycine max [1]
Cc1nnc(NC(=O)c2ccc(C(F)(F)F)n3c(C4(C)CC4(Cl)Cl)nnc23)o1 (stereo not drawn) [1-105]	2 (Herbicidal ratio of 20% or more and less than 40%)	5 (Herbicidal ratio of 90% or more (almost completely withered))	5 (Herbicidal ratio of 90% or more (almost completely withered))	4 (Herbicidal ratio of 70% or more and less than 90%)	5 (Herbicidal ratio of 90% or more (almost completely withered))	5 (Herbicidal ratio of 90% or more (almost completely withered))	5 (Herbicidal ratio of 90% or more (almost completely withered))		
O=C(Nc1nnco1)c1ccc(C(F)(F)F)n2c(C3CC3)nnc12 [1-144]	4 (Herbicidal ratio of 70% or more and less than 90%)	5 (Herbicidal ratio of 90% or more (almost completely withered))	3 (Herbicidal ratio of 40% or more and less than 70%)	3 (Herbicidal ratio of 40% or more and less than 70%)	5 (Herbicidal ratio of 90% or more (almost completely withered))	2 (Herbicidal ratio of 20% or more and less than 40%)	4 (Herbicidal ratio of 70% or more and less than 90%)		
Cn1nnnc1NC(=O)c1ccc(C(F)(F)F)n2c(CSCC(F)(F)F)nnc12 [2-030]		5 (Herbicidal ratio of 90% or more (almost completely withered))	4 (Herbicidal ratio of 70% or more and less than 90%)	4 (Herbicidal ratio of 70% or more and less than 90%)	4 (Herbicidal ratio of 70% or more and less than 90%)	4 (Herbicidal ratio of 70% or more and less than 90%)	5 (Herbicidal ratio of 90% or more (almost completely withered))	0 (Herbicidal ratio of 5% or less (almost no effect))	
CC(C)N(C)c1nnc2c(C(=O)Nc3nnco3)ccc(C(F)(F)F)n12 [1-122]	5 (Herbicidal ratio of 90% or more (almost completely withered))	5 (Herbicidal ratio of 90% or more (almost completely withered))	5 (Herbicidal ratio of 90% or more (almost completely withered))	5 (Herbicidal ratio of 90% or more (almost completely withered))	5 (Herbicidal ratio of 90% or more (almost completely withered))	5 (Herbicidal ratio of 90% or more (almost completely withered))	5 (Herbicidal ratio of 90% or more (almost completely withered))		
CC(C)Sc1nnc2c(C(=O)Nc3nnnn3C)ccc(C(F)(F)F)n12 [2-025]		5 (Herbicidal ratio of 90% or more (almost completely withered))	5 (Herbicidal ratio of 90% or more (almost completely withered))	5 (Herbicidal ratio of 90% or more (almost completely withered))	5 (Herbicidal ratio of 90% or more (almost completely withered))	5 (Herbicidal ratio of 90% or more (almost completely withered))	5 (Herbicidal ratio of 90% or more (almost completely withered))		4 (Herbicidal ratio of 70% or more and less than 90%)
CCCc1nnc2c(C(=O)Nc3nnnn3C)ccc(C(F)(F)F)n12 [2-019]		5 (Herbicidal ratio of 90% or more (almost completely withered))	5 (Herbicidal ratio of 90% or more (almost completely withered))	4 (Herbicidal ratio of 70% or more and less than 90%)	5 (Herbicidal ratio of 90% or more (almost completely withered))	5 (Herbicidal ratio of 90% or more (almost completely withered))	5 (Herbicidal ratio of 90% or more (almost completely withered))		4 (Herbicidal ratio of 70% or more and less than 90%)
CC(C)[S+]([O-])c1nnc2c(C(=O)Nc3nnnn3C)ccc(C(F)(F)F)n12 (stereo not drawn) [2-032]		5 (Herbicidal ratio of 90% or more (almost completely withered))	5 (Herbicidal ratio of 90% or more (almost completely withered))	5 (Herbicidal ratio of 90% or more (almost completely withered))	5 (Herbicidal ratio of 90% or more (almost completely withered))	5 (Herbicidal ratio of 90% or more (almost completely withered))	5 (Herbicidal ratio of 90% or more (almost completely withered))	5 (Herbicidal ratio of 90% or more (almost completely withered))	
Cc1nnc(NC(=O)c2ccc(C(F)(F)F)n3c(N(C)C(C)C)nnc23)o1 [1-132]	3 (Herbicidal ratio of 40% or more and less than 70%)	5 (Herbicidal ratio of 90% or more (almost completely withered))	4 (Herbicidal ratio of 70% or more and less than 90%)	4 (Herbicidal ratio of 70% or more and less than 90%)	5 (Herbicidal ratio of 90% or more (almost completely withered))	4 (Herbicidal ratio of 70% or more and less than 90%)	5 (Herbicidal ratio of 90% or more (almost completely withered))		
COCCN(C)c1nnc2c(C(=O)Nc3nnco3)ccc(C(F)(F)F)n12 [1-121]	4 (Herbicidal ratio of 70% or more and less than 90%)	5 (Herbicidal ratio of 90% or more (almost completely withered))	4 (Herbicidal ratio of 70% or more and less than 90%)	4 (Herbicidal ratio of 70% or more and less than 90%)	5 (Herbicidal ratio of 90% or more (almost completely withered))	5 (Herbicidal ratio of 90% or more (almost completely withered))	5 (Herbicidal ratio of 90% or more (almost completely withered))		
